The text below walks through data of patent US7094909B2, “HIV protease inhibitors, compositions containing the same, their pharmaceutical uses and materials for their synthesis” (priority 2001, dated 2006).

The target in assay [1] is T1, HIV-1 protease (Q7S mutant form) (Human immunodeficiency virus type 1 group M subtype B, UniProt P04585, Q495S).
T1 construct: made in house
Briefly: HIV-1 Protease RET assay. Format: biochemical. The method in brief:
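Ki values fitted with the Morrison tight-binding equation from steady-state RET cleavage (ex 340, em 490 nm) of 5 μM RE(EDANS)SQNYPIVQK(DABCYL)R. Buffer pH 4.8 acetate, 1M NaCl, 5 mM DTT, 1 mg/ml BSA, 10% DMSO; 2 nM Q7S mutant dimer, 37 °C, 12 min.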

Assay [2] deals with HIV-1 (HIV-1 RF, HIV-1 NL4-3) in CEM-SS / MT-2 cells. Briefly: Cytopathic effect (CPE) inhibition assay (XTT/MTT dye reduction). In kind it is cell-based. How it is done: T-cell lines, CEM-SS, and MT-2, and viruses HIV-1 RF and HIV-1 NL4-3 (pNL4-3) were obtained from the National Institutes of Health (AIDS Research and Reference Reagent Program, Bethesda, Md.).
Cytopathic Effect (CPE) Inhibition Assays
The ability of compounds to protect cells against HIV infection was measured by the […] dye reduction method, essentially as described (See Pauwels, R. Balzarini, J. Baba, M. Snoeck, R. Schols, D. Herdewijn, P. Desmyter, J. and De Clercq, E. 1988, “Rapid and automated tetrazolium-based colorimetric assay for the detection of anti-HIV compounds,”. J Virol. Methods., 20: 309–321 and Weislow, O. S. Kiser, R. Fine, D. L. Bader, J. Shoemaker, R. H. and Boyd, M. R. 1989. “New soluble-formazan assay for HIV-1 cytopathic effects: application to high-flux screening of synthetic and natural products for AIDS-antiviral activity”. J. Natl. Cancer Inst. 81:577–586). Subject cells were infected with test virus at an moi of 0.025 to 0.819 or mock infected with medium only and added at 2×10^4 cells per well into 96 well plates containing half-log dilutions of test compounds. Six days later, 50 μl of XTT (1 mg/ml XTT tetrazolium, 0.02 nM phenazine methosulfate) was added to the wells and the plate was reincubated for four hours. Viability, as determined by the amount of XTT formazan produced, was quantified spectrophotometrically by absorbance at 450 nm. Data from CPE assays were expressed as the percent of formazan produced in compound-treated cells compared to formazan produced in wells of uninfected, compound-free cells. The fifty percent effective concentration (EC50) was calculated as the concentration of compound that effected an increase in the percentage of formazan production in infected, compound-treated cells to 50% of that produced by uninfected, compound-free cells. The 50% cytotoxicity concentration (CC50) was calculated as the concentration of compound that decreased the percentage of formazan produced in uninfected, compound-treated cells to 50% of that produced in uninfected, compound-free cells. The therapeutic index was calculated by dividing the cytotoxicity (CC50) by the antiviral activity (EC50).
A general note: Damage to the host cells serves as the signal in cytopathic effect assays.

The mark [3] stands for this setting: Human immunodeficiency virus 1, NL43, unit inferred, read-out: EC50.
Setting [4] is: Ave. Ki (nM), RET assay, Q7S enzyme, Morrison tight binding fit.
Where [5] appears, read: Human immunodeficiency virus 1, NL43, read-out: Ave CPE EC50.

A word on the Ki: it is a dissociation constant, usually derived from enzyme kinetics or from competition with a known ligand. Low values mean higher affinity, high ones lower affinity. The EC50 is the concentration that produces a half-maximal response.

Like-named read-outs stand apart in the source and are kept apart here. Where only a bound is given, the exact number is not on record here.

Molecule `Cc1ccccc1CNC(=O)[C@@H]1CC(F)(F)CN1C(=O)[C@@H](O)[C@H](Cc1ccccc1)NC(=O)C1C(C)C(=O)ON1C` (some centres unmarked) had an inhibitory constant (Ki) in assay [1] (Ki, unit inferred) of 3.6 nM. Moreover, in assay [2] (setting [3]), the EC50 is no less than 3200 nM.
For the molecule `Cc1ccccc1CNC(=O)[C@H]1N(C(=O)[C@@H](O)[C@H](Cc2ccccc2)NC(=O)O[C@H]2CCOC2)COC1(C)C` [Example C47, {(1S,2S)-1-Benzyl-3-[(S)-5,5-dimethyl-4-(2-methyl-benzylcarbamoyl)-oxazolidin-3-yl]-2-hydroxy-3-oxo-propyl}-carbamic acid (S)-(tetrahydro-furan-3-yl)ester], in assay [1] (setting [4]), the affinity corresponds to a Ki of 1.4 nM. Besides, in assay [2] (setting [5]), the EC50 was 1380 nM.
`C#CCOC(=O)N[C@@H](Cc1ccccc1)[C@H](O)C(=O)N1CSC(C)(C)[C@H]1C(=O)NCCC` displayed a Ki in assay [1] (Ki, unit inferred) of 4.8 nM. Besides, the EC50 in assay [2] (setting [3]) came out at 1350 nM.
Molecule `Cc1c(O)cccc1C(=O)N[C@@H](Cc1ccccc1)[C@H](O)C(=O)N1CSC(C)(C)[C@H]1C(=O)NCc1ccncc1` [Example A8, (R)-3-((2S,3S)-2-Hydroxy-3-{[1l-(3-hydroxy-2-methyl-phenyl)-methanoyl]-amino}-4-phenyl-butanoyl)-5,5-dimethyl-thiazolidine-4-carboxylic acid (pyridin-4-ylmethyl)-amide] showed a Ki in assay [1] (setting [4]) of 1.4 nM. Besides, the EC50 in assay [2] (setting [5]) is 451 nM.
The molecule `C=CCNC(=O)[C@H]1N(C(=O)[C@@H](O)[C@H](Cc2ccccc2)NC(=O)CSc2nc[nH]n2)CSC1(C)C` [Example B25, (R)-3-{(2S,3S)-2-Hydroxy-4-phenyl-3-[2-(1H-[1,2,4]triazol-3-ylsulfanyl)-ethanoylamino]-butanoyl}-5,5-dimethyl-thiazolidine-4-carboxylic acid allylamide] displayed a Ki in assay [1] (setting [4]) of 21 nM. Moreover, in assay [2] (setting [5]), the EC50 is greater than 1000 nM.
In assay [1] (Ki, unit inferred), `Cc1ccccc1CNC(=O)C1N(C(=O)[C@@H](O)[C@H](Cc2ccccc2)NC(=O)CSc2nc3ccccc3[nH]2)CSC1(C)C` (some centres unmarked) showed a Ki of 17.4 nM. Besides, the EC50 in assay [2] (setting [3]) was no less than 3200 nM.
Take `CCCNC(=O)[C@H]1N(C(=O)[C@@H](O)[C@H](Cc2ccccc2)NC(=O)OCCC)CSC1(C)C`: the Ki in assay [1] (Ki, unit inferred) amounted to 12.7 nM. The EC50 in assay [2] (setting [3]) was no less than 3200 nM.
For the molecule `C#CCCC(=O)N[C@@H](Cc1ccccc1)[C@H](O)C(=O)N1CSC(C)(C)[C@H]1C(=O)NCc1ccccc1C` [Example B18, (R)-3-((2S,3S)-2-Hydroxy-3-pent-4-ynoylamino-4-phenyl-butyryl)-5,5-dimethyl-thiazolidine-4-carboxylic acid 2-methyl-benzylamide], the Ki in assay [1] (setting [4]) turned out to be 0.56 nM. The EC50 in assay [2] (setting [5]) is 1250 nM.
In turn, `CC(=O)C(=O)N[C@@H](Cc1ccccc1)[C@H](O)C(=O)N1CSC(C)(C)[C@H]1C(=O)NCc1ccccc1C` showed an inhibition constant Ki in assay [1] (Ki, unit inferred) of 4.7 nM. Further, in assay [2] (setting [3]), the EC50 is no less than 1000 nM.
With `Cc1ccccc1CNC(=O)C1N(C(=O)[C@@H](O)[C@H](Cc2ccccc2)NC(=O)CSc2nncn2C)CSC1(C)C` (some centres unmarked), in assay [1] (Ki, unit inferred), the affinity corresponds to a Ki of 82 nM. Also, the EC50 in assay [2] (setting [3]) was no less than 3200 nM.
Turning to `CCCOC(=O)N[C@@H](Cc1ccccc1)[C@H](O)C(=O)N1CSC(C)(C)[C@H]1C(=O)NCc1ccccc1C`, affinity in assay [1] (Ki, unit inferred) was put at a Ki of 1.1 nM. For the same molecule, the EC50 in assay [2] (setting [3]) stood at 1550 nM.
The molecule `C#CCNC(=O)[C@H]1N(C(=O)[C@@H](O)[C@H](Cc2ccccc2)NC(=O)COc2c(C)cccc2C)CSC1(C)C` [Example B36, (R)-3-{(2S,3S)-3-[2-(2,6-Dimethyl-phenoxy)-ethanoylamino]-2-hydroxy-4-phenyl-butanoyl}-5,5-dimethyl-thiazolidine-4-carboxylic acid prop-2-ynylamide] showed an inhibition constant (Ki) in assay [1] (setting [4]) of less than 0.1 nM. Besides, the EC50 in assay [2] (setting [5]) was determined as 519 nM.
In the same order, the values of `Cc1ccccc1CNC(=O)[C@H]1N(C(=O)[C@@H](O)[C@H](Cc2ccccc2)NC(=O)c2cccc(O)c2C)CC(=O)C1(C)C` [Example C48, 1-[2-Hydroxy-3-(3-hydroxy-2-methyl-benzoylamino)-4-phenyl-butyryl]-3,3-dimethyl-4-oxo-pyrrolidine-2-carboxylic acid 2-methyl-benzylamide] are less than 0.1 nM and 128 nM.
In assay [1] (setting [4]), `Cc1c(F)cccc1C(=O)N[C@@H](Cc1ccccc1)[C@H](O)C(=O)N1CSC(C)(C)[C@H]1C(=O)N[C@@H]1C=CCCC1` [Example B81, (R)-3-((2S,3S)-3-{[1-(3-Fluoro-2-methyl-phenyl)-methanoyl]-amino}-2-hydroxy-4-phenyl-butanoyl)-5,5-dimethyl-thiazolidine-4-carboxylic acid (S)-cyclohex-2-enylamide] gave a Ki of 0.35 nM. Moreover, the EC50 in assay [2] (setting [5]) is 878 nM.
Molecule `C#CCOC(=O)N[C@@H](Cc1ccccc1)[C@H](O)C(=O)N1CSC(C)(C)[C@H]1C(=O)NCc1c(F)cccc1F` [Example B51, {1-Benzyl-3-[4-(2,6-difluoro-benzylcarbamoyl)-5,5-dimethyl-thiazolidin-3-yl]-2-hydroxy-3-oxo-propyl}-carbamic acid prop-2-ynyl] gave a Ki in assay [1] (setting [4]) of 0.99 nM. Moreover, in assay [2] (setting [5]), the EC50 was greater than 3200 nM.
`Cc1cccc(C)c1OCC(=O)N[C@@H](Cc1ccccc1)[C@H](O)C(=O)N1CSC(C)(C)[C@H]1C(=O)NCc1ccccc1C(F)(F)F`: in assay [1] (Ki, unit inferred), the Ki turned out to be 1.4 nM. Besides, the concentration giving a half-maximal response (EC50) in assay [2] (setting [3]) turned out to be 1950 nM.
Regarding `Cc1cccc(C)c1OCC(=O)N[C@@H](Cc1ccccc1)[C@H](O)C(=O)N1CSC(C)(C)[C@H]1C(=O)NCc1ccco1` [Example B38, (R)-3-{(2S,3S)-3-[2-(2,6-Dimethyl-phenoxy)-ethanoylamino]-2-hydroxy-4-phenyl-butanoyl}-5,5-dimethyl-thiazolidine-4-carboxylic acid (furan-2-ylmethyl)-amide], the inhibitory constant (Ki) in assay [1] (setting [4]) came to 0.16 nM. The EC50 in assay [2] (setting [5]) was 600 nM.
On to `Cc1c(O)cccc1C(=O)N[C@@H](Cc1ccccc1)[C@H](O)C(=O)N1CC(F)(F)C[C@H]1C(=O)NCc1ccccc1Cl` [Example C10, 4,4-Difluoro-1-[2-hydroxy-3-(3-hydroxy-2-methyl-benzoylamino)-4-phenyl-butyryl]-pyrrolidine-2-carboxylic acid 2-chloro-benzylamide], for which the Ki in assay [1] (setting [4]) was determined as 1.5 nM. For the same molecule, the EC50 in assay [2] (setting [5]) was 1290 nM.
Consider `Cc1ccccc1CNC(=O)[C@@H]1CC(F)(F)CN1C(=O)[C@@H](O)[C@H](Cc1ccccc1)NC(=O)O[C@H]1CCOC1` [Example C41, {(1S,2S)-1-Benzyl-3-[(S)-4,4-difluoro-2-(2-methyl-benzylcarbamoyl)-pyrrolidin-1-yl]-2-hydroxy-3-oxo-propyl}-carbamic acid (S)-(tetrahydro-furan-3-yl)ester], for which the Ki in assay [1] (setting [4]) was found to be 1.3 nM. The EC50 in assay [2] (setting [5]) is 1430 nM.
With `CC1(C)SCN(C(=O)[C@@H](O)[C@H](Cc2ccccc2)NC(=O)c2cccc3c2CCN3)[C@@H]1C(=O)N[C@@H]1CCOc2ccccc21`, the Ki in assay [1] (Ki, unit inferred) was 7.4 nM. In assay [2] (setting [3]), the half-maximal effective concentration (EC50) is 1960 nM.
In assay [1] (setting [4]), `Cc1ccccc1C(=O)N[C@@H](Cc1ccccc1)[C@H](O)C(=O)N1CSC(C)(C)[C@H]1C(=O)NCc1cccs1` [Example B79, (R)-3-{(2S,3S)-2-Hydroxy-4phenyl-3-[(1-o-tolyl-methanoyl)-amino]-butanoyl}-5,5-dimethyl-thiazolidine-4-carboxylic acid (thiophen-2-ylmethyl)-amide] showed a Ki of 0.78 nM. Besides, the EC50 in assay [2] (setting [5]) worked out at 530 nM.
For the molecule `CCC(=O)NC(Cc1ccccc1)[C@H](O)C(=O)N1CSC(C)(C)C1C(=O)NCc1ccccc1C` (some centres unmarked), affinity in assay [1] (Ki, unit inferred) was put at a Ki of 8.4 nM. Moreover, in assay [2] (setting [3]), the EC50 is no less than 3200 nM.
Regarding `Cc1c(O)cccc1C(=O)N[C@@H](Cc1ccccc1)[C@H](O)C(=O)N1CSC(C)(C)[C@H]1C(=O)NCC1CCOC1` (stereo partly drawn) [Example A46, (R)-3-((2S,3S)-2-Hydroxy-3-{[1-(3-hydroxy-2-methyl-phenyl)-methanoyl]-amino}-4-phenyl-butanoyl)-5,5-dimethyl-thiazolidine-4-carboxylic acid (tetrahydro-furan-3-ylmethyl)-amide], the Ki in assay [1] (setting [4]) came to 1.1 nM. Also, the EC50 in assay [2] (setting [5]) was 469 nM.
As to `CCCC(C)C(=O)NC(Cc1ccccc1)[C@H](O)C(=O)N1CSC(C)(C)C1C(=O)NCc1ccccc1C` (some centres unmarked), in assay [1] (Ki, unit inferred), the inhibitory constant (Ki) was found to be 12.6 nM. In assay [2] (setting [3]), the EC50 was no less than 3200 nM.
In assay [1] (setting [4]), `Cc1c(O)cccc1C(=O)N[C@@H](Cc1ccccc1)[C@H](O)C(=O)N1CSC(C)(C)[C@H]1C(=O)NCc1cc2ccccc2o1` [Example A62, (R)-3-[(2S,3S)-2-Hydroxy-3-(3-hydroxy-2-methyl-benzoylamino)-4-phenyl-butyryl]-5,5-dimethyl-thiazolidine-4-carboxylic acid (benzofuran-2-ylmethyl)-amide] had a Ki of 9.6 nM. In addition, the EC50 in assay [2] (setting [5]) amounted to 2260 nM.
